From publication doi:10.1101/2022.02.10.479976v1 (bioRxiv, 2022)
Values joined by “and” are separate entries in the source; they are usually repeats but may differ in a detail not shown here. Equal values may be shown once.

Assays:
[1] = cited from earlier work
[2] = Distribution of calcitonin in sub-compartments of sheep blood in vitro; assay type: in vitro ADME; details: calcitonin treated group, 2.5 ng/ml; sum of all five compartments = 100 percent
[3] = cited from earlier work; remark: listed apart in the source
[4] = cited from earlier work; remark: listed apart in the source

distribution of calcitonin associated with RBC [2] | distribution of calcitonin in plasma [2] | distribution of calcitonin on WBC-surface [2] | Substance | sustained pharmacodynamic effects (duration) [1] | plasma protein binding [3] | half-life [4] | bioavailability ([4]; parenteral delivery, various formulations) | elimination half-life [4]
less than 8% | ~30% | ~30% and ~40% | Calcitonin | 18 to 22 h | ~40% | 40 to 60 min | up to 70% | –
– | – | – | salmon Calcitonin | – | – | – | – | 54 to 76 min
